Assays:
[1] = target: T1, hCBS Q222A (Homo sapiens, UniProt P35520, Q222A); test: purified hCBS mutant enzyme assay; format: biochemical; conditions: 1 mM HA, 60 mM Cys, 1.2 μM CBS-413 Q222A
T1 construct: hCBS-413 (a C-terminal truncated hCBS 1–413); GST (N); made in house; host or cells: E. coli BL21
T1 sequence (P35520 1-413 Q222A): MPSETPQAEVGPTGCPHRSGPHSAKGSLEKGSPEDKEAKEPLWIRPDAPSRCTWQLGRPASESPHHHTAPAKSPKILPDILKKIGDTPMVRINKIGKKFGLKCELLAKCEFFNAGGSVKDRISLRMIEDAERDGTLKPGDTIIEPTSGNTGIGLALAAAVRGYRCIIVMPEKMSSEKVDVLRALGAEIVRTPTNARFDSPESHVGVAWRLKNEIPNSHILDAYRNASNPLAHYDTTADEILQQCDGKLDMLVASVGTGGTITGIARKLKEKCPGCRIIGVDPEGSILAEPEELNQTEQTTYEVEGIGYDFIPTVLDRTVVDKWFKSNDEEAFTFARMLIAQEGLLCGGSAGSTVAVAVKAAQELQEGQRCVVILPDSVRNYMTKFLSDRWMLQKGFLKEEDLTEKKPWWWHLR
Procedure: The IC50 values of CH004 for hCBS-413, hCBS-413 mutants, hCBS-FL, hCSE or hDDC were determined according to the standard assay conditions otherwise indicated.
Figure S6. […] HEK293T cells stably expressing CBS Q222A mutant (293T-CBS Q222A) were treated with 0 (DMSO control), 5 or 10 μM CH004 for 8 h before staining with the AzMC to detect H2S. The overlaid images of fluorescent and bright-field images are shown in the left panel, and the corresponding fluorescent (blue, H2S) and bright-field images are shown in the middle and right panels, respectively. Bars: 50 μm. [picture] Figure S7. The CH004-insensitive CBS Q222A mutant can be inhibited by HA. (A) HEK293T cells stably expressing CBS Q222A mutant (293T-CBS Q222A) were treated with 0 (DMSO, control), 5 or 10 μM of CH004, 1 mM or 2 mM of HA for 8 h before staining with the AzMC to detect H2S. The overlaid images of fluorescent and bright-field images are shown in the upper panel, and the corresponding fluorescent (blue, H2S) and bright-field images are shown in the middle and lower panels, respectively. Bars: 50 μm. (B) Quantification of the mean fluorescent density of H2S (blue). The intensity of blue light of the fluorescent images was quantified by ImageJ software, quantified and deduced the background signal in HEK293T-EV cells (Supplementary Figure S3B), normalized by the corresponding cell area and expressed as percentages of control (DMSO group, 100%). Means ± SDs (n=3). One-way ANOVA with Bonferroni post-tests was used for the analysis. *, p< 0.05; **, p< 0.01; n.s. no significance. The images are one representative from three independent experiments. (C) The inhibitory effect of 1 mM HA on purified CBS Q222A mutant. The assay was performed using 60 mM Cys and 1.2 μM CBS-413 Q222A mutant. The data were expressed as percentages of control (DMSO, 100%). Means ± SDs (n=4). [picture]
Table S2. Inhibitory effects of CH004 on hCBS WT and mutants.

[2] = target: T2, CBS-FL mutant (293T-CBS Q222A) (Homo sapiens, UniProt P35520, Q222A); test: H2S in HEK293T cells stably expressing CBS Q222A (AzMC probe); format: cell-based; conditions: 1 mM or 2 mM HA, 8 h
T2 construct: human CBS or hCSE full-length (CBS-FL or CSE) was subcloned into pGEX-KG, pcDNA3 or pCDH vector; expressed in transfected cells
Procedure: HEK293T cells were transiently transfected with empty vector (EV, i and ii), hCBS-FL (iii and iv) or hCSE (v and vi) plasmids, followed by incubation with DMSO (i–iii and v) or 10 μM CH004 (iv and vi) for 8 h before staining with 50 μM AzMC, a H2S-specific probe (“Materials and Methods” section). For larger fluorescent and bright-field images, please see Supplementary Figure 4. The expression levels of hCBS or hCSE in HEK293T cells after transient transfections were determined by western blotting using an anti-CBS antibody (3E1, 1:2000; Abnova) or anti-CSE antibody (1:500, GeneTex). The densities of protein bands for hCBS or hCSE in the blots were quantified with the ImageJ software (National Institutes of Health, Bethesda, MD, USA) and expressed as ratios of respective control (EV group). […] The fluorescent images of the H2S (blue) were accordingly quantified (“Materials and Methods” section) with ImageJ. […] A representative fluorescence image from three independent experiments is shown. […]
H2S levels in living cells were detected using a H2S-specific fluorescent probe according to a protocol described previously[31],[55]. […] After incubation with 50 μM AzMC at 37 °C for 30 min, the cells were washed 4 times with PBS, and the fluorescent images were recorded with excitation by 405 nm laser by using a A1Si (Nikon) confocal microscope. […]

- inhibitory effect on activity of purified CBS Q222A mutant [1]: could be suppressed
- effect on H2S [2]: substantially decreased
Compound: NO [HA, hydroxylamine, reference compound]
